Test results from patent US9364448B2, “Nitisinone for treatment of oculocutaneous/ocular albinism and for increasing pigmentation” (The United States of America, as represented by the …, priority 2010, dated 2016).

Tested on: melanocytes from a patient with OCA-1B
Test: Human melanocyte melanin assay, OCA-1B patient
Format: cell-based
Conditions: 1 mM tyrosine, p=0.0025, not to wild-type level
Procedure: Human melanocyte culture and melanin assay. Human melanocytes were established from skin punch biopsies. Skin specimens were washed with PBS then treated with 0.25% trypsin-EDTA (Gibco 25200) for about 2 hours followed by vigorous vortexing to separate the epidermis. The epidermis was sectioned and attached to scored patches on the bottom of a 6-well polystyrene culture dish before being covered with melanocyte media. About 1000 ml of melanocyte media was made from 950 ml Ham's F10 (Gibco 1550), 25 ml FBS, 5 ug bFGF (Sigma F0291), 10 μg endothelin (Sigma, E7764, Sigma Chemicals, St. Louis, Mo.), 7.5 mg IBMX (Sigma 17018), 30 μg cholera toxin (Sigma C8052), 3.3 μg TPA (Sigma P8139), 10 ml PenStrepGlutamine, 1 ml fungizone and the media was 0.22 μm filtered.
Melanocytes were plated on 6 well dishes and grown to confluency. Melanin assays were run in triplicate by supplementing three wells per plate with 1 mM tyrosine (Sigma T8566), using the remaining 3 wells as untreated controls. Treatment time was approximately one week. […] The OD475 was measured and converted to melanin content via a standard curve using synthetic melanin (Sigma M0418). The data were normalized to protein content, determined using a bicinchoninic (BCA) assay kit (BioRad, Inc., Hercules, Calif.). Differences between treated and untreated measurements were analyzed with a two-tailed unpaired t-test. […]

SMILES: N[C@@H](Cc1ccc(O)cc1)C(=O)O [tyrosine]
- Pigmentation: significantly increased pigmentation
